“Also recorded” adds a separate entry of the source. Counter-ions that a name gives are not always drawn. Like-named read-outs stand apart in the source and are kept apart here.
Legend:
TK6 cells [1] = assay: In vitro micronucleus assay (In Vitro MICROFLOW kit)
Description: The in vitro micronucleus assay is a chromosomal damage test that is widely used to evaluate chemical and/or physical agents for clastogenic and aneugenic activity. […] Furthermore, in the usual conduct of the in vitro micronucleus assay, the discrimination of bona fide genotoxic activity as primarily occurring through a clastogenic or aneugenic mode of action is not readily obtained.
For these experiments, each of the 20 chemicals was tested over closely spaced concentrations, 6 replicate wells per concentration. Three wells were used for the micronucleus analyses, and three wells were used for the several nuclear biomarker assessments of the type described in Example 1. Other endpoints of cytotoxicity were considered, including […], ethidium monoazide bromide (EMA) positive events as an indicator of membrane integrity, tetramethylrhodamine ethyl ester (TMRE) negative cells as an assessment of mitochondrial membrane potential, and ATP levels (using luciferase) as an assessment of overall cell health in the sample. […] Further details are described under Statistical Analyses, as well as Example 4 below.
Those cytotoxicity evaluations were based on a conventional approach for assessing cytotoxicity in genotoxicity tests, that is, relative cell counts (which in the case of the flow cytometry-based In Vitro MICROFLOW® kit is accomplished by measuring nuclei to counting bead ratio or else nuclei to time ratio and expressing these values relative to the mean solvent control value). […] The remaining three wells per concentration were used to accomplish a series of nuclei biomarker readings according to the invention, as well as two other assessments of cytotoxicity—frequency of TMRE-negative cells and ATP levels (via Promega's CELL TITERGLO® kit).

TK6 cells [2] = assay: Nuclei to bead ratio (relative cell count, cytotoxicity) by flow cytometry; format: cell-based
TK6 cells [3] = details: human
TK6 cells [4] = details: human; remark: listed apart in the source
Description: The TK6 cells used in these experiments were from American Type Tissue Collection (ATCC) (Manassas, Va.). Cells were maintained in culture medium at 37° C., 5% CO2, and in a humid atmosphere. Cells were maintained between approximately 1×10^4 and 1×10^6 cells/ml for routine passage.
For these experiments, TK6 cells were treated with solvent (most often DMSO, 1% v/v) and a range of closely spaced test article concentrations. Treatments occurred in wells of a 96-well plate. At the start of treatment, cells were at 2×10^5/ml in a volume of 300 μl per well. Counting beads (PEAK FLOW™) were included in these cultures at a concentration of approximately 1 drop per 10 ml, and served as a means to derive relative nuclei to bead ratios (relative to solvent controls). Continuous treatment occurred for approximately 24 hrs, during which time plates were incubated at 37° C., 5% CO2, and in a humid atmosphere. Each test article concentration was studied in 3 to 6 replicate wells.
The γH2AX endpoint described herein was studied 4 and/or 24-27 hrs after start of treatment. Each of the remaining endpoints were studied at the conclusion of the treatment period, that is 24 to 27 hrs after initiation of exposure to test article (which for this cell line corresponds to approximately 1.5 to 2.0 population doubling times).
At the time of cell harvest (4 hrs and 24 to 27 hrs), cells were resuspended with gentle pipetting and 25 μl aliquots were transferred to wells of a 96 well plate containing 50 μl pre-aliquoted lysis solution.
After incubation at room temperate for at least 5 minutes, samples were analyzed with a dual-laser flow cytometer, 488 nm and 633 nm excitation (FACSCanto II, BD Biosciences, San Jose, Calif.). Instrumentation settings and data acquisition/analysis were controlled with Diva software v6.1.3. […] The BD Biosciences High Throughput Sampler (HTS) attachment was used to automatically analyze each of the samples in the 96 well plate(s). For the majority of these endpoints and experiments, the stop mode was configured such that each well was analyzed for 5 seconds, which usually represented sufficient time to acquire at least 500 NAD-positive nuclei.
Treatments occurred over a range of closely spaced concentrations.

TK6 cells [5] = assay: Cleaved caspase 3-positive nuclei by flow cytometry; format: cell-based; details: for Caspase 3-Positive Nuclei (Fold-Increase): 24-27 hours, relative to Control
Source text: (§1) This chemical was also observed to affect cleaved PARP and Caspase 3 levels in nuclei, as evidenced by the higher values of cleaved PARP- and Caspase 3-positive nuclei relative to solvent control wells.

TK6 cells [6] = assay: Cleaved PARP-positive nuclei by flow cytometry; format: cell-based; details: for PARP-Positive Nuclei (Fold-Increase): 24-27 hours, relative to Control
Source text: as §1

TK6 cells [7] = format: cell-based
Description: This experiment highlights the ability of the invention to combine multiple nuclei-associated endpoints into one flow cytometric analysis. For this experiment, log-phase TK6 cells were treated with cisplatin over a wide range of concentrations and then incubated at 37° C. for 24 hours. Each concentration was studied in triplicate wells of a 96 well plate. After 24 hours, well contents were pipetted up and down several times to form homogenous suspensions, and 25 μl per well was added to wells of a new 96 well plate that contained 50 μl of working lysis/labeling/staining solution. This lysis/labeling/staining solution was comprised of 5 μl anti-γH2AX-Alexa® 488/ml, 1 μl anti-phospho-H3-PE/ml, 5 μl anti-cleaved PARP-Alexa® 647/ml, 5 μRNase/ml, […] Absolute Count Bead/50 μl

[8] = TK6 cells, continuous exposure 24-27 hrs, In Vitro MICROFLOW kits
[9] = 24-27 hours after start of treatment

CC[C@]1(O)C[C@@H]2CN(CCc3c([nH]c4ccccc34)[C@@](C(=O)OC)(c3cc4c(cc3OC)N(C)[C@H]3[C@@](O)(C(=O)OC)[C@H](OC(C)=O)[C@]5(CC)C=CCN6CC[C@]43[C@@H]65)C2)C1 [Vinblastine, vinblastine]
in vitro micronucleus results (TK6 cells [1]): positive | nuclei to bead ratios (effect in words) (TK6 cells [2]): concentration-dependent reductions | Nuclei to Bead Ratio (% of Control) (TK6 cells [2]; human, 0.3 ng/ml): 98 % of Control | Nuclei to Bead Ratio (% of Control) (TK6 cells [2]; human, 0.4 ng/ml): 97 % of Control | Nuclei to Bead Ratio (% of Control) (TK6 cells [2]; human, 0.6 ng/ml): 86 % of Control | Nuclei to Bead Ratio (% of Control) (TK6 cells [2]; human, 0.8 ng/ml): 81 % of Control | Nuclei to Bead Ratio (% of Control) (TK6 cells [2]; human, 1.2 ng/ml): 71 % of Control | Nuclei to Bead Ratio (% of Control) (TK6 cells [2]; human, 1.6 ng/ml): 58 % of Control | Phospho-H3+ Nuclei (Fold-Increase) (TK6 cells [3]; 0.3 ng/ml): .86 Fold-Increase | Phospho-H3+ Nuclei (Fold-Increase) (TK6 cells [3]; 0.4 ng/ml): .86 Fold-Increase | Phospho-H3+ Nuclei (Fold-Increase) (TK6 cells [3]; 0.6 ng/ml): 1.23 Fold-Increase | Phospho-H3+ Nuclei (Fold-Increase) (TK6 cells [3]; 0.8 ng/ml): 2.11 Fold-Increase | Phospho-H3+ Nuclei (Fold-Increase) (TK6 cells [3]; 1.2 ng/ml): 4.85 Fold-Increase | Phospho-H3+ Nuclei (Fold-Increase) (TK6 cells [3]; 1.6 ng/ml): 5.41 Fold-Increase

NC(=O)NO [hydroxyurea]
in vitro micronucleus results (TK6 cells [1]): positive

C[C@@]1(CO)[C@H](O)CC[C@@]2(C)[C@H]1CC[C@H]1C[C@@H]3C[C@@]12CC[C@]3(O)CO [aphidicoline]
in vitro micronucleus results (TK6 cells [1]; [8]): positive

O=c1[nH]cc(F)c(=O)[nH]1 [5-fluorouracil]
in vitro micronucleus results (TK6 cells [1]): positive

CC/C(=C(/CC)c1ccc(O)cc1)c1ccc(O)cc1 [diethylstilbestrol]
in vitro micronucleus results (TK6 cells [1]; [8]): positive

COc1ccc(C2=N[C@@H](c3ccc(Cl)cc3)[C@@H](c3ccc(Cl)cc3)N2C(=O)N2CCNC(=O)C2)c(OC(C)C)c1 [nutlin-3]
in vitro micronucleus results (TK6 cells [1]; [8]): positive

COS(C)(=O)=O [MMS, methyl methanesulfonate]
in vitro micronucleus results (TK6 cells [1]): positive | nuclei to bead ratios (effect in words) (TK6 cells [2]): concentration-dependent reductions | Nuclei to Bead Ratio (% of Control) (TK6 cells [2]; human, 2.344 μg/ml): 88 % of Control | Nuclei to Bead Ratio (% of Control) (TK6 cells [2]; human, 3.125 μg/ml): 87 % of Control | Nuclei to Bead Ratio (% of Control) (TK6 cells [2]; human, 4.6875 μg/ml): 83 % of Control | Nuclei to Bead Ratio (% of Control) (TK6 cells [2]; human, 6.25 μg/ml): 78 % of Control | Nuclei to Bead Ratio (% of Control) (TK6 cells [2]; human, 9.375 μg/ml): 64 % of Control | Nuclei to Bead Ratio (% of Control) (TK6 cells [2]; human, 12.5 μg/ml): 58 % of Control | γH2AX Fluorescence (Fold-Increase) (TK6 cells [4]; 2.344 μg/ml): 3.13 Fold-Increase | γH2AX Fluorescence (Fold-Increase) (TK6 cells [4]; 3.125 μg/ml): 4.11 Fold-Increase | γH2AX Fluorescence (Fold-Increase) (TK6 cells [4]; 4.6875 μg/ml): 4.36 Fold-Increase | γH2AX Fluorescence (Fold-Increase) (TK6 cells [4]; 6.25 μg/ml): 4.92 Fold-Increase | γH2AX Fluorescence (Fold-Increase) (TK6 cells [4]; 9.375 μg/ml): 4.79 Fold-Increase | γH2AX Fluorescence (Fold-Increase) (TK6 cells [4]; 12.5 μg/ml): 4.80 Fold-Increase | Phospho-H3+ Nuclei (Fold-Increase) (TK6 cells [3]; 2.344 μg/ml): 1.00 Fold-Increase | Phospho-H3+ Nuclei (Fold-Increase) (TK6 cells [3]; 3.125 μg/ml): 0.76 Fold-Increase | Phospho-H3+ Nuclei (Fold-Increase) (TK6 cells [3]; 4.6875 μg/ml): 0.67 Fold-Increase | Phospho-H3+ Nuclei (Fold-Increase) (TK6 cells [3]; 6.25 μg/ml): 0.71 Fold-Increase | Phospho-H3+ Nuclei (Fold-Increase) (TK6 cells [3]; 9.375 μg/ml): 0.76 Fold-Increase | Phospho-H3+ Nuclei (Fold-Increase) (TK6 cells [3]; 12.5 μg/ml): 0.65 Fold-Increase

COc1cc([C@@H]2c3cc4c(cc3[C@@H](O[C@@H]3O[C@@H]5CO[C@@H](C)O[C@H]5[C@H](O)[C@H]3O)[C@H]3COC(=O)[C@H]23)OCO4)cc(OC)c1O [etoposide]
in vitro micronucleus results (TK6 cells [1]): positive

Nc1ccn([C@@H]2O[C@H](CO)[C@@H](O)[C@@H]2O)c(=O)n1 [arabinofuranosyl cytidine]
in vitro micronucleus results (TK6 cells [1]; [8]): positive

COC(=O)Nc1nc2ccccc2[nH]1 [carbendazim]
in vitro micronucleus results (TK6 cells [1]): positive

CC[C@@]1(O)C(=O)OCc2c1cc1n(c2=O)Cc2cc3ccccc3nc2-1 [camptothecin]
in vitro micronucleus results (TK6 cells [1]; [8]): positive

N#CC(C#N)=NNc1cccc(Cl)c1 [CCCP, carbonyl cyanide m-chlorophenyl hydrazone]
in vitro micronucleus results (TK6 cells [1]; [8]): positive | cleaved Caspase 3-positive nuclei relative to solvent control (effect in words) (TK6 cells [5]; [9]): visibly increased; also recorded: higher values | Caspase 3-Positive Nuclei (Fold-Increase) (TK6 cells [5]; CCCP 3.125 μM): 2.63 Fold-Increase | Caspase 3-Positive Nuclei (Fold-Increase) (TK6 cells [5]; CCCP 4.6875 μM): 4.33 Fold-Increase | Caspase 3-Positive Nuclei (Fold-Increase) (TK6 cells [5]; CCCP 6.25 μM): 5.86 Fold-Increase | Caspase 3-Positive Nuclei (Fold-Increase) (TK6 cells [5]; CCCP 9.375 μM): 9.13 Fold-Increase | Caspase 3-Positive Nuclei (Fold-Increase) (TK6 cells [5]; CCCP 12.5 μM): 18.83 Fold-Increase | Nuclei to Bead Ratio (% of Control) (TK6 cells [2]; CCCP 3.125 μM, TK6 cells, 24-27 hours after start of treatment): 79 % of Control | Nuclei to Bead Ratio (% of Control) (TK6 cells [2]; CCCP 4.6875 μM, TK6 cells, 24-27 hours after start of treatment): 69 % of Control | Nuclei to Bead Ratio (% of Control) (TK6 cells [2]; CCCP 6.25 μM, TK6 cells, 24-27 hours after start of treatment): 64 % of Control | Nuclei to Bead Ratio (% of Control) (TK6 cells [2]; CCCP 9.375 μM, TK6 cells, 24-27 hours after start of treatment): 59 % of Control | Nuclei to Bead Ratio (% of Control) (TK6 cells [2]; CCCP 12.5 μM, TK6 cells, 24-27 hours after start of treatment): 50 % of Control | nuclei to bead ratios (effect in words) (TK6 cells [2]; TK6 cells, range of closely spaced concentrations, 24-27 hours, indicative of fewer cells and therefore cytotoxicity): concentration-dependent reductions | cleaved PARP-positive nuclei relative to solvent control wells (effect in words) (TK6 cells [6]; [9]): higher values | PARP-Positive Nuclei (Fold-Increase) (TK6 cells [6]; CCCP 3.125 μM): 4.90 Fold-Increase | PARP-Positive Nuclei (Fold-Increase) (TK6 cells [6]; CCCP 4.6875 μM): 8.60 Fold-Increase | PARP-Positive Nuclei (Fold-Increase) (TK6 cells [6]; CCCP 6.25 μM): 12.1 Fold-Increase | PARP-Positive Nuclei (Fold-Increase) (TK6 cells [6]; CCCP 9.375 μM): 20.75 Fold-Increase | PARP-Positive Nuclei (Fold-Increase) (TK6 cells [6]; CCCP 12.5 μM): 34.45 Fold-Increase

[H]/N=C(/N)N/C(=N/[H])NCCc1ccccc1 [phenformin HCl]
in vitro micronucleus results (TK6 cells [1]; [8]): positive

tunicamycin
in vitro micronucleus results (TK6 cells [1]; [8]): positive

N.N.[Cl][Pt][Cl] [Cisplatin, cisplatin]
in vitro micronucleus results (TK6 cells [1]): positive | absolute and relative nuclei counts (effect in words) (TK6 cells [7]): reduced in a cisplatin concentration-dependent manner | anti-cleaved PARP positive chromatin (effect in words) (TK6 cells [7]): increased in a cisplatin concentration-dependent manner | anti-phospho-H3 positive nuclei (effect in words) (TK6 cells [7]): reduced in a cisplatin concentration-dependent manner | other changes to cell cycle (effect in words) (TK6 cells [7]): accumulation of cells in the G2/M phase | shift in anti-γH2AX-associated fluorescence (effect in words) (TK6 cells [7]): increased in a cisplatin concentration-dependent manner

Reference: patent US11016101B2, “Simplified nuclei analysis platform and biomarker matrix that supports genotoxic mode of action determinations” (Litron Laboratories, Ltd., priority 2013, dated 2021)
